We go through 26 compounds from patent US20240336613A1, “HETEROARYL COMPOUNDS FOR TREATING HUNTINGTON'S DISEASE” (PTC THERAPEUTICS, INC., priority 2021, published 2024).

pIC50: −log10 of the molar value. Where only a bound is given, the exact number is not on record here.

The test system of one assay is Huntingtin protein (HTT). Description: Endogenous Huntingtin Protein Assay (MSD electrochemiluminescence). The class given is cell-based. The note with it: Cpd 72 compared with Cpd 7 in WO2020/005873. Here is the method: Compounds of Formula (I) were tested using the Meso Scale Discovery (MSD) Assay provided in International Application No. PCT/US2016/066042, filed on Dec. 11, 2016 and claiming priority to United States Provisional Application U.S. 62/265,652 filed on Dec. 10, 2015, the entire contents of which are incorporated herein by reference.
The Endogenous Huntingtin Protein assay used in Example 1 was developed using the ELISA-based MSD electrochemiluminescence assay platform.
Meso Scale Discovery (MSD) 96-well or 384-well plates were coated overnight at 4° C. with MW1 (expanded polyglutamine) or MAB2166 monoclonal antibody (for capture) at a concentration of 1 μg/mL in PBS (30 μL per well). Plates were then washed three times with 300 μL wash buffer (0.05% Tween-20 in PBS) and blocked (100 μL blocking buffer; 5% BSA in PBS) for 4-5 hours at room temperature with rotational shaking and then washed three times with wash buffer.
Samples (25 μL) were transferred to the antibody-coated MSD plate and incubated overnight at 4° C. After removal of the lysates, the plate was washed three times with wash buffer, and 25 μL of #5656S (Cell signaling; rabbit monoclonal) secondary antibody (diluted to 0.25 μg/mL in 0.05% Tween-20 in blocking buffer) was added to each well and incubated with shaking for 1 Hour at room temperature. Following incubation with the secondary antibody, the wells were rinsed with wash buffer after which 25 μL of goat anti-rabbit SULFO TAG secondary detection antibody (required aspect of the MSD system) (diluted to 0.25 μg/mL in 0.05% Tween-20 in blocking buffer) was added to each well and incubated with shaking for 1 hour at room temperature. After rinsing three times with wash buffer, 150 μL of read buffer T with surfactant (MSD) were added to each empty well, and the plate was imaged on a SI 6000 imager (MSD) according to manufacturers' instructions provided for 96- or 384-well plates.
`CC1(C)CC(n2nnc3cc(-c4ccc(-n5ccnn5)cc4O)nnc32)CC(C)(C)N1` [Cpd 72 in WO2020/005873, reference compound]: the “potency comparison, 1H-pyrazole moiety replaced with 1H-1,2,3-triazole moiety” value is given as “significant loss in potency”.

The assay is the same for the next values; noted with them: Table 1, Endogenous Huntingtin Protein Assay.
As usually defined, the pIC50 is the IC50 on a negative log10 scale, so that one unit is a factor of ten. `Cc1cnnn1-c1ccc(-c2cc3ccn([C@H]4CC(C)(C)NC(C)(C)[C@H]4F)c3nn2)c(O)c1` [Cpd 17, 2-{7-[(3S,4S)-3-fluoro-2,2,6,6-tetramethylpiperidin-4-yl]-7H-pyrrolo[2,3-c]pyridazin-3-yl}-5-(5-methyl-1H-1,2,3-triazol-1-yl)phenol]: the pIC50 was 6.30 to 7.00.

As to `Cc1cn(-c2ccc(-c3cc4ccn([C@H]5CCNC6(CC6)C5)c4nn3)c(O)c2)nn1` [Cpd 16, 2-{7-[(7S)-4-azaspiro[2.5]octan-7-yl]-7H-pyrrolo[2,3-c]pyridazin-3-yl}-5-(4-methyl-1H-1,2,3-triazol-1-yl)phenol], the pIC50 is over 7.00.

Take `Cc1cn(-c2ccc(-c3cc4ccn([C@H]5CC(C)(C)NC(C)(C)[C@H]5F)c4nn3)c(O)c2)nn1` [Cpd 15, 2-{7-[(3S,4S)-3-fluoro-2,2,6,6-tetramethylpiperidin-4-yl]-7H-pyrrolo[2,3-c]pyridazin-3-yl}-5-(4-methyl-1H-1,2,3-triazol-1-yl)phenol]: the pIC50 was over 7.00.

As to `CC1(C)C[C@H](n2ccc3cc(-c4ccc(-n5cc(Cl)nn5)cc4O)nnc32)[C@H](F)C(C)(C)N1` [Cpd 19, 5-(4-chloro-1H-1,2,3-triazol-1-yl)-2-{7-[(3S,4S)-3-fluoro-2,2,6,6-tetramethylpiperidin-4-yl]-7H-pyrrolo[2,3-c]pyridazin-3-yl}phenol], the pIC50 was over 7.00.

The same assay, now with this note: Table 1, Endogenous Huntingtin Protein Assay; read-out: IC50.
As to “2-{7-[(1S,2R,3R,5R)-2-fluoro-1,5-dimethyl-8-azabicyclo[3.2.1]octan-3-yl]-7H-pyrrolo[2,3-c]pyridazin-3-yl}-5-(1H-1,2,3-triazol-1-yl)phenol and 2-{7-[(1R,2S,3S,5S)-2-fluoro-1,5-dimethyl-8-azabicyclo[3.2.1]octan-3-yl]-7H-pyrrolo[2,3-c]pyridazin-3-yl}-5-(1H-1,2,3-triazol-1-yl)phenol [Cpd 21]”, the pIC50 was over 7.00.

Regarding `CC1(C)CC(n2ccc3cc(-c4ccc(-n5ccnn5)cc4O)nnc32)CC(C)(C)N1` [Cpd 1, 2-[7-(2,2,6,6-tetramethylpiperidin-4-yl)-7H-pyrrolo[2,3-c]pyridazin-3-yl]-5-(1H-1,2,3-triazol-1-yl)phenol], the pIC50 is over 7.00.

`Cc1cc2cc(-c3ccc(-n4ccnn4)cc3O)nnc2n1C1CCNC2(CC2)C1` (stereo not drawn) [Cpd 9, 2-[7-(4-azaspiro[2.5]octan-7-yl)-6-methyl-7H-pyrrolo[2,3-c]pyridazin-3-yl]-5-(1H-1,2,3-triazol-1-yl)phenol]: the pIC50 is 6.30 to 7.00.

On to `CN1CCC(n2ccc3cc(-c4ccc(-n5ccnn5)cc4O)nnc32)CC12CC2` (stereo not drawn) [Cpd 7, 2-[7-(4-methyl-4-azaspiro[2.5]octan-7-yl)-7H-pyrrolo[2,3-c]pyridazin-3-yl]-5-(1H-1,2,3-triazol-1-yl)phenol], for which the pIC50 is over 7.00.

As for `CC1(C)C[C@H](n2ccc3cc(-c4c(O)cc(-n5ccnn5)cc4F)nnc32)[C@H](F)C(C)(C)N1` [Cpd 27, 3-fluoro-2-{7-[(3S,4S)-3-fluoro-2,2,6,6-tetramethylpiperidin-4-yl]-7H-pyrrolo[2,3-c]pyridazin-3-yl}-5-(1H-1,2,3-triazol-1-yl)phenol], the pIC50 was over 7.00.

As to `Oc1cc(-n2ccnn2)ccc1-c1cc2ccn(C3CC4(CC4)NC4(CC4)C3)c2nn1` (stereo not drawn) [Cpd 24, 2-[7-(4-azadispiro[2.1.2^5.3^3]decan-9-yl)-7H-pyrrolo[2,3-c]pyridazin-3-yl]-5-(1H-1,2,3-triazol-1-yl)phenol], the pIC50 was over 7.00.

Regarding `CC1(C)CC(n2ccc3cc(-c4ccc(-n5ccnn5)cc4O)nnc32)CCN1` (racemic) [Cpd 5, 2-{7-[(4RS)-2,2-dimethylpiperidin-4-yl]-7H-pyrrolo[2,3-c]pyridazin-3-yl}-5-(1H-1,2,3-triazol-1-yl)phenol], the pIC50 is over 7.00.

For `Oc1cc(-n2ccnn2)ccc1-c1cc2ccn([C@@H]3CCNC4(CC4)C3)c2nn1` [Cpd 11, 2-{7-[(7R)-4-azaspiro[2.5]octan-7-yl]-7H-pyrrolo[2,3-c]pyridazin-3-yl}-5-(1H-1,2,3-triazol-1-yl)phenol], the pIC50 was over 7.00.

Consider “2-{7-[(4S,5R)-5-fluoro-2,2-dimethylpiperidin-4-yl]-7H-pyrrolo[2,3-c]pyridazin-3-yl}-5-(1H-1,2,3-triazol-1-yl)phenol and 2-{7-[(4R,5S)-5-fluoro-2,2-dimethylpiperidin-4-yl]-7H-pyrrolo[2,3-c]pyridazin-3-yl}-5-(1H-1,2,3-triazol-1-yl)phenol [Cpd 12]”, for which the pIC50 was over 7.00.

On to “2-{7-[(3R,4S)-3-fluoro-2,2,6,6-tetramethylpiperidin-4-yl]-7H-pyrrolo[2,3-c]pyridazin-3-yl}-5-(1H-1,2,3-triazol-1-yl)phenol and 2-{7-[(3S,4R)-3-fluoro-2,2,6,6-tetramethylpiperidin-4-yl]-7H-pyrrolo[2,3-c]pyridazin-3-yl}-5-(1H-1,2,3-triazol-1-yl)phenol [Cpd 3]”, for which the pIC50 was over 7.00.

As to “2-{7-[(1S,2S,3R,5R)-2-fluoro-8-azabicyclo[3.2.1]octan-3-yl]-7H-pyrrolo[2,3-c]pyridazin-3-yl}-5-(1H-1,2,3-triazol-1-yl)phenol and 2-{7-[(1R,2R,3S,5S)-2-fluoro-8-azabicyclo[3.2.1]octan-3-yl]-7H-pyrrolo[2,3-c]pyridazin-3-yl}-5-(1H-1,2,3-triazol-1-yl)phenol [Cpd 20]”, the pIC50 was over 7.00.

As for `CC1(C)C[C@H](n2ccc3cc(-c4ccc(-n5ccnn5)cc4O)nnc32)[C@H](F)C(C)(C)N1` [Cpd 8], the pIC50 was over 7.00.

On to “2-{7-[(3S,4S)-3-fluoro-2,2,6,6-tetramethylpiperidin-4-yl]-7H-pyrrolo[2,3-c]pyridazin-3-yl}-5-(1H-1,2,3-triazol-1-yl)phenol and 2-{7-[(3R,4R)-3-fluoro-2,2,6,6-tetramethylpiperidin-4-yl]-7H-pyrrolo[2,3-c]pyridazin-3-yl}-5-(1H-1,2,3-triazol-1-yl)phenol [Cpd 2]”, for which the negative-log IC50 (pIC50) is over 7.00.

Turning to `Cc1cc2cc(-c3ccc(-n4ccnn4)cc3O)nnc2n1[C@H]1CC(C)(C)NC(C)(C)[C@H]1F` [Cpd 10, 2-{7-[(3S,4S)-3-fluoro-2,2,6,6-tetramethylpiperidin-4-yl]-6-methyl-7H-pyrrolo[2,3-c]pyridazin-3-yl}-5-(1H-1,2,3-triazol-1-yl)phenol], the pIC50 was over 7.00.

On to “2-{7-[(8S,9R)-8-fluoro-6-azaspiro[4.5]decan-9-yl]-7H-pyrrolo[2,3-c]pyridazin-3-yl}-5-(1H-1,2,3-triazol-1-yl)phenol and 2-{7-[(8R,9S)-8-fluoro-6-azaspiro[4.5]decan-9-yl]-7H-pyrrolo[2,3-c]pyridazin-3-yl}-5-(1H-1,2,3-triazol-1-yl)phenol [Cpd 25]”, for which the pIC50 was 6.30 to 7.00.

As for `Oc1cc(-n2ccnn2)cnc1-c1cc2ccn([C@H]3CCNC4(CC4)C3)c2nn1` [Cpd 14, 2-{7-[(7S)-4-azaspiro[2.5]octan-7-yl]-7H-pyrrolo[2,3-c]pyridazin-3-yl}-5-(1H-1,2,3-triazol-1-yl)pyridine-3-ol], the pIC50 was over 7.00.

“2-{7-[(8R,9R)-9-fluoro-5-azaspiro[3.5]nonan-8-yl]-7H-pyrrolo[2,3-c]pyridazin-3-yl}-5-(1H-1,2,3-triazol-1-yl)phenol and 2-{7-[(8S,9S)-9-fluoro-5-azaspiro[3.5]nonan-8-yl]-7H-pyrrolo[2,3-c]pyridazin-3-yl}-5-(1H-1,2,3-triazol-1-yl)phenol [Cpd 23]”: the pIC50 was over 7.00.

Regarding `Oc1cc(-n2ccnn2)ccc1-c1cc2ccn(C3CCNC4(CC4)C3)c2nn1` (stereo not drawn) [Cpd 4, 2-[7-(4-azaspiro[2.5]octan-7-yl)-7H-pyrrolo[2,3-c]pyridazin-3-yl]-5-(1H-1,2,3-triazol-1-yl)phenol], the negative-log IC50 (pIC50) is over 7.00.

In the case of `CC1(C)C[C@H](n2ccc3cc(-c4cc(F)c(-n5ccnn5)cc4O)nnc32)[C@H](F)C(C)(C)N1` [Cpd 26, 4-fluoro-2-{7-[(3S,4S)-3-fluoro-2,2,6,6-tetramethylpiperidin-4-yl]-7H-pyrrolo[2,3-c]pyridazin-3-yl}-5-(1H-1,2,3-triazol-1-yl)pheno], the pIC50 was over 7.00.

The assay is the same for the next values; noted with them: Table 2, comparison compounds tested according to the assay of Example 1; read-out: IC50.
`CC1(C)CC(n2ccc3cc(-c4ccc(-n5ccnn5)cc4O)nnc32)CC(C)(C)N1` [Cpd 1, 2-[7-(2,2,6,6-tetramethylpiperidin-4-yl)-7H-pyrrolo[2,3-c]pyridazin-3-yl]-5-(1H-1,2,3-triazol-1-yl)phenol]: the pIC50 was 9.10.

With `CC1(C)CC(n2ccc3cc(-c4ccc(-c5cn[nH]c5)cc4O)nnc32)CC(C)(C)N1` [Cpd 26 in WO2020/005873, reference compound], the pIC50 is 8.15.

Consider `CC1(C)CC(n2nnc3cc(-c4ccc(-c5cn[nH]c5)cc4O)nnc32)CC(C)(C)N1` [Cpd 7 in WO2020/005873, reference compound], for which the pIC50 is 8.19.

For the compound `CC1(C)CC(n2nnc3cc(-c4ccc(-n5ccnn5)cc4O)nnc32)CC(C)(C)N1` [Cpd 72 in WO2020/005873, reference compound], the pIC50 was 6.75.

The assay is the same for the next values; noted with them: compared with Cpd 26 in WO2020/005873 (1H-pyrazole replaced with 1H-1,2,3-triazole).
For the compound `CC1(C)CC(n2ccc3cc(-c4ccc(-n5ccnn5)cc4O)nnc32)CC(C)(C)N1` [Cpd 1, 2-[7-(2,2,6,6-tetramethylpiperidin-4-yl)-7H-pyrrolo[2,3-c]pyridazin-3-yl]-5-(1H-1,2,3-triazol-1-yl)phenol], the improvement in potency entry is listed as “over 8 fold”.

Still in this assay, the particulars now being: compared with Cpd 72 in WO2020/005873 (3H-[1,2,3]-triazolo[4,5-c]pyridazine core).
With `CC1(C)CC(n2ccc3cc(-c4ccc(-n5ccnn5)cc4O)nnc32)CC(C)(C)N1` [Cpd 1, 2-[7-(2,2,6,6-tetramethylpiperidin-4-yl)-7H-pyrrolo[2,3-c]pyridazin-3-yl]-5-(1H-1,2,3-triazol-1-yl)phenol], the improvement in potency was 223 fold.
